The source of these data is patent publication US8278473B2, “Alpha, beta-unsaturated imidate compound and pesticidal composition containing the same” (Sumitomo Chemical Company, Limited, priority 2007, dated 2012).

This test relates to Haemaphysalis longicornis. Kind of test: Test Example 10: Haemaphysalis longicornis, treated filter paper pouch. The test is classed as in vivo. The conditions noted are these: 0.5 mg compound on filter paper 5×10 cm; non-blood sucking nymphal ticks; after 2 days. As to the method: In 1 mL of acetone, 0.5 mg of any one of the present compounds 1 to 48 was dissolved, and the solution was spread uniformly on one side of a filter paper (TOYO No. 2; 5×10 cm). After dried, the filter paper was folded into two, and the sides were clipped to make a pouch. Into the pouch, tested ticks (Haemaphysalis longicornis, non-blood sucking nymphal ticks, 10 ticks in a group) were placed. The pouch was clipped and sealed. After 2 days, the number of dead ticks was counted.
`CC(=COc1ccc(C)cc1)C(=Nc1ccccc1)Oc1cccc(F)c1` [Compound 198, 3-fluorophenyl 2-methyl-3-(4-methylphenyloxy)-N-phenyl-2-propenimidate] displayed a death rate of 100%.
In the case of `CCc1cccc(OC(=Nc2ccccc2)C(C)=COc2ccccc2OC)c1` [Compound 234, 3-ethylphenyl 3-(2-methoxyphenyloxy)-2-methyl-N-phenyl-2-propenimidate] it was 100%; in that of `CC(=COc1ccc(Oc2ccccc2)cc1)C(=Nc1ccccc1)Oc1ccccc1` [Compound 291, phenyl 2-methyl-3-(4-phenoxyphenyloxy)-N-phenyl-2-propenimidate], 100%; in that of `CC(=COc1cccc(C)c1)C(=Nc1ccccc1)Oc1ccccc1` [Compound 175, phenyl 2-methyl-3-(3-methylphenyloxy)-N-phenyl-2-propenimidate], 100%.
The compound `CC(=COc1cccc(C)c1)C(=Nc1ccc(C)cc1)Oc1ccccc1` [Compound 183, phenyl 2-methyl-N-(4-methylphenyl)-3-(3-methylphenyloxy)-2-propenimidate] came in with a death rate of 100%.
In the case of `COc1ccc(N=C(Oc2cccc(OC)c2)C(C)=COc2ccc(OC)cc2)cc1` [Compound 279, 3-methoxyphenyl N-(4-methoxyphenyl)-3-(4-methoxyphenyloxy)-2-methyl-2-propenimidate] it was 100%.
In the case of `CC(=COc1ccc(C)cc1)C(=Nc1ccccc1)Oc1ccc(F)cc1` [Compound 199, 4-fluorophenyl 2-methyl-3-(4-methylphenyloxy)-N-phenyl-2-propenimidate] it was 100%.
As for `COc1ccc(OC=C(C)C(=Nc2ccc(C)cc2)Oc2cccc(OC)c2)cc1` [Compound 273, 3-methoxyphenyl 3-(4-methoxyphenyloxy)-2-methyl-N-(4-methylphenyl)-2-propenimidate], the death rate was determined as 100%.
In the case of `COc1ccc(OC=C(C)C(=Nc2ccccc2)Oc2cccc(OC)c2)cc1` [Compound 266, 3-methoxyphenyl 3-(4-methoxyphenyloxy)-2-methyl-N-phenyl-2-propenimidate] it was 100%.
In turn, `CCc1cccc(OC(=Nc2ccc(C)cc2)C(C)=COc2ccccc2OC)c1` [Compound 241, 3-ethylphenyl 3-(2-methoxyphenyloxy)-2-methyl-N-(4-methylphenyl)-2-propenimidate] returned a death rate of 100%.
In the case of `COc1ccc(OC=C(C)C(=Nc2ccc(C)cc2)Oc2ccc(C)cc2)cc1` [Compound 271, 4-methylphenyl 3-(4-methoxyphenyloxy)-2-methyl-N-(4-methylphenyl)-2-propenimidate] it was 100%; in that of `COc1ccc(N=C(Oc2cccc(C)c2)C(C)=COc2ccc(C)cc2)cc1` [Compound 225, 3-methylphenyl N-(4-methoxyphenyl)-2-methyl-3-(4-methylphenyloxy)-2-propenimidate], 100%.
The value for `CC(=COc1cccc(C)c1)C(=Nc1ccccc1)Oc1cccc(C)c1` [Compound 176, 3-methylphenyl 2-methyl-3-(3-methylphenyloxy)-N-phenyl-2-propenimidate] was 100%; that for `COc1ccc(OC=C(C)C(=Nc2ccc(C)cc2)Oc2cc(C)cc(C)c2)cc1` [Compound 275, 3,5-dimethylphenyl 3-(4-methoxyphenyloxy)-2-methyl-N-(4-methylphenyl)-2-propenimidate] was 100%.
In the case of `COc1ccc(N=C(Oc2cc(C)cc(C)c2)C(C)=COc2ccc(OC)cc2)cc1` [Compound 281, 3,5-dimethylphenyl N-(4-methoxyphenyl)-3-(4-methoxyphenyloxy)-2-methyl-2-propenimidate] it was 100%; in that of `CC(=COc1cccc(C)c1)C(=Nc1ccc(C)cc1)Oc1cccc(C)c1` [Compound 184, 3-methylphenyl 2-methyl-N-(4-methylphenyl)-3-(3-methylphenyloxy)-2-propenimidate], 100%; in that of `COc1ccc(N=C(Oc2cccc(C)c2)C(C)=COc2ccccc2OC)cc1` [Compound 246, 3-methylphenyl N-(4-methoxyphenyl)-3-(2-methoxyphenyloxy)-2-methyl-2-propenimidate], 100%.
As for `CCc1ccc(OC=C(C)C(=Nc2ccccc2)Oc2ccccc2)cc1` [Compound 229, phenyl 3-(4-ethylphenyloxy)-2-methyl-N-phenyl-2-propenimidate], the death rate is 100%.
As to `CCc1cccc(OC(=Nc2ccc(C)cc2)C(C)=COc2cccc(C)c2)c1` [Compound 185, 3-ethylphenyl 2-methyl-N-(4-methylphenyl)-3-(3-methylphenyloxy)-2-propenimidate], the death rate amounted to 100%.
In turn, `CCOc1cccc(OC(=Nc2ccccc2)C(C)=COc2ccccc2OC)c1` [Compound 237, 3-ethoxyphenyl 3-(2-methoxyphenyloxy)-2-methyl-N-phenyl-2-propenimidate] gave a death rate of 100%.
In the case of `CC(=COc1ccc(C(C)C)cc1)C(=Nc1ccccc1)Oc1ccccc1` [Compound 230, phenyl 3-(4-isopropylphenyloxy)-2-methyl-N-phenyl-2-propenimidate] it was 100%.
In the case of `COc1ccccc1OC=C(C)C(=Nc1ccccc1)Oc1cccc(C)c1` [Compound 233, 3-methylphenyl 3-(2-methoxyphenyloxy)-2-methyl-N-phenyl-2-propenimidate] it was 100%.
